“And” between values parts separate entries of the source, which are not always exact repeats. Identical values can stand only once.
Legend:
[1] = test system: L1210 Mouse Leukemia; test: Antitumor activity against L1210 mouse leukemia inoculated i.p. in mice; assay type: in vivo, CDF₁ mouse; settings: for Survival days (mean ± standard deviation) / T/C (%): CDF₁ mice; for Survival rate: living mice on the 30th day / mice in group
Experimental: Approximately 10⁵ cells of mouse leukemia L1210 which had been subcultured in DBA/2 mice were inoculated into the abdominal cavity of CDF₁ mouse (male, 6 weeks old, each group consisting of 6 to 10 mice). […] CDDP and CBDCA were tested as the positive control. Each complex tested was used in the form of a solution or suspension in 0.05% "Tween 80"-saline or in distilled water. Antitumor activity was evaluated based on the T/C value, calculated according to the following formula: [formula] The number of living mice was also recorded on the 30th day.

[2] = test system: Slc:ICR mice; test: Acute toxicity test in mice (LD50, Miller-Tainter method); assay type: in vivo; settings: intraperitoneal, Slc:ICR mice (male), death rate on the 14th day
Experimental: The acute toxicity test of the compounds of the present invention to mice were carried out by using CDDP as the control. Platinum complexes to be tested was administered intraperitoneally to Slc:ICR mice (male, 5 weeks old, 6 mice/group). Each complex was used in the form of a solution or suspension in a 0.05% "Tween 80" - saline. The LD₅₀ value was calculated by the Miller-Tainter method from the death rate on the 14th day from the date of the administration.

[3] = dose 1 mg/kg i.p. on Day 1, 5 and 9
[4] = dose 10 mg/kg i.p. on Day 1, 5 and 9
[5] = dose 25 mg/kg i.p. on Day 1, 5 and 9
[6] = dose 50 mg/kg i.p. on Day 1, 5 and 9
[7] = dose 100 mg/kg i.p. on Day 1, 5 and 9
[8] = dose 200 mg/kg i.p. on Day 1, 5 and 9
[9] = dose 5 mg/kg i.p. on Day 1, 5 and 9
[10] = dose 2.5 mg/kg i.p. on Day 1, 5 and 9, 2.5 mg/kg
[11] = dose 5 mg/kg i.p. on Day 1, 5 and 9, 5 mg/kg
[12] = dose 7.5 mg/kg i.p. on Day 1, 5 and 9, 7.5 mg/kg

| Compound | Survival days (mean ± standard deviation) [1, 3] [days] | T/C (%) [1, 3] [%] | Survival days (mean ± standard deviation) [1, 4] [days] | T/C (%) [1, 4] [%] | Survival days (mean ± standard deviation) [1, 5] [days] | T/C (%) [1, 5] [%] | Survival days (mean ± standard deviation) [1, 6] [days] | T/C (%) [1, 6] [%] | Survival days (mean ± standard deviation) [1, 7] [days] | T/C (%) [1, 7] [%] | Survival days (mean ± standard deviation) [1, 8] [days] | T/C (%) [1, 8] [%] | Survival rate [1, 3] | Survival rate [1, 4] | Survival rate [1, 5] | Survival rate [1, 6] | Survival rate [1, 7] | Survival rate [1, 8] | LD₅₀ Value [2] [mg/kg] | other results |
| --- | --- | --- | --- | --- | --- | --- | --- | --- | --- | --- | --- | --- | --- | --- | --- | --- | --- | --- | --- | --- |
| N.N.O=C([O-])C1(C(=O)[O-])CCC1.[Pt+2] [CBDCA, Platinum(II) cis-diamine-1,1-cyclobutanedicarboxylate, reference compound] | 8.3 ± 0.5 | 98 | 9.3 ± 0.5 | 109 | 10.1 ± 1.3 | 119 | 13.1 ± 2.3 | 156 | 14.1 ± 3.7 | 166 | 9.6 ± 0.7 | 113 | 0/10 | 0/10 | 0/10 | 0/10 | 0/10 | 0/10 | – | – |
| [Pt(trans-ℓ-1,2-diaminocyclohexane)] (3-acetyl-6-methyl-2H-pyran-2,4(3H)-dione)₂·H₂O [Example 2] | 8.7 ± 0.5 | 104 | 13.8 ± 3.6 | 164 | 19.7 ± 7.5 | 235 | 10.0 ± 1.1 | 119 | 6.3 ± 2.0 | 75 | 2.8 ± 1.6 | 33 | 0/6 | 0/6 | 1/6 | 0/6 | 0/6 | 0/6 | 61 | – |
| [Pt(trans-ℓ-1,2-diaminocyclohexane)] (3-acetyl-6-methyltetrahydropyran-2,4-dione)₂·H₂O [Example 1] | 8.5 ± 0.5 | 101 | 11.5 ± 1.2 | 137 | 14.2 ± 3.2 | 169 | 17.0 ± 3.0 | 202 | 15.5 ± 5.0 | 185 | 6.0 | 71 | 0/6 | 0/6 | 0/6 | 0/6 | 0/6 | 0/6 | 98 | – |
| [Pt(trans-ℓ-1,2-diaminocyclohexane)](3-acetyl-6-methyl-2H-pyran-2,4(3H)-dione)(NO₃)·H₂O [Example 14] | 8.2 ± 0.4 | 98 | 11.3 ± 0.8 | 135 | 19.0 ± 8.5 | 226 | 18.0 ± 6.2 | 214 | 9.5 ± 1.2 | 113 | 5.0 | 60 | 0/6 | 0/6 | 2/6 | 1/6 | 0/6 | 0/6 | 73 | – |
| [Pt(trans-ℓ-1,2-diaminocyclohexane)](3-acetyl-6-methyltetrahydropyran-2,4-dione) (C₃H₇COO)·H₂O [Example 5] | 8.8 ± 1.6 | 104 | 10.2 ± 1.6 | 120 | 11.8 ± 1.7 | 139 | 16.3 ± 5.0 | 192 | 14.2 ± 5.0 | 167 | – | – | 0/6 | 0/6 | 0/6 | 0/6 | 0/6 | – | 111 | – |
| [Pt(trans-ℓ-1,2-diaminocyclohexane)](3-acetyl-6-methyltetrahydropyran-2,4-dione)(CH₃COO)·H₂O [Example 3] | 9.2 ± 1.0 | 110 | 14.0 ± 2.6 | 167 | 23.0 ± 6.4 | 274 | 15.2 ± 4.1 | 181 | 7.7 ± 1.5 | 91 | 3.0 ± 2.0 | 36 | 0/6 | 0/6 | 2/6 | 0/6 | 0/6 | 0/6 | 61 | Survival days (mean ± standard deviation) [1, 9]: 12.8 ± 3.0 days; T/C (%) [1, 9]: 152%; Survival rate [1, 9]: 0/6 |
| cis-diamminedichloroplatinum (II) [CDDP, reference compound] | – | – | – | – | – | – | – | – | – | – | – | – | – | – | – | – | – | – | 15.3 | Survival days (mean ± standard deviation) [1, 10]: 15.2 ± 1.9 days and 12.0 ± 3.0 days and 13.0 ± 3.1 days and 10.5 ± 1.8 days; T/C (%) [1, 10]: 181% and 143% and 153% and 125%; Survival days (mean ± standard deviation) [1, 11]: 18.5 ± 6.0 days and 14.3 ± 2.9 days and 18.2 ± 0.4 days and 15.5 ± 1.4 days; T/C (%) [1, 11]: 220% and 170% and 214% and 185%; Survival days (mean ± standard deviation) [1, 12]: 17.0 ± 2.2 days and 15.5 ± 2.1 days and 20.2 ± 4.8 days and 22.3 ± 3.9 days; T/C (%) [1, 12]: 202% and 185% and 238% and 266%; Survival rate ([1]; dose 2.5 mg/kg i.p. on Day 1, 5 and 9): 0/6; Survival rate [1, 11]: 1/6 and 0/6; Survival rate [1, 12]: 0/6 and 1/6 |

— patent publication EP0337459A2, “Platinum complex, process for preparing same and antitumor agent” (TORAY INDUSTRIES, INC., priority 1988, dated 1989)
